Laboratory results reported in article PMC4182434, “Characterization of Niphatenones that Inhibit Androgen Receptor N-Terminal Domain” (PLoS ONE, 2014).

Assays:
[1] = target: T1, full-length AR (endogenous, LNCaP) (Homo sapiens, UniProt P10275, T878A); assay: PB-luciferase reporter in LNCaP cells; format: cell-based; details: R1881-induced, serum-free, […] h; antagonist, AF-1 directed; covalent
T1 construct: endogenous full-length AR of LNCaP cells
T1 sequence (P10275 1-920 T878A): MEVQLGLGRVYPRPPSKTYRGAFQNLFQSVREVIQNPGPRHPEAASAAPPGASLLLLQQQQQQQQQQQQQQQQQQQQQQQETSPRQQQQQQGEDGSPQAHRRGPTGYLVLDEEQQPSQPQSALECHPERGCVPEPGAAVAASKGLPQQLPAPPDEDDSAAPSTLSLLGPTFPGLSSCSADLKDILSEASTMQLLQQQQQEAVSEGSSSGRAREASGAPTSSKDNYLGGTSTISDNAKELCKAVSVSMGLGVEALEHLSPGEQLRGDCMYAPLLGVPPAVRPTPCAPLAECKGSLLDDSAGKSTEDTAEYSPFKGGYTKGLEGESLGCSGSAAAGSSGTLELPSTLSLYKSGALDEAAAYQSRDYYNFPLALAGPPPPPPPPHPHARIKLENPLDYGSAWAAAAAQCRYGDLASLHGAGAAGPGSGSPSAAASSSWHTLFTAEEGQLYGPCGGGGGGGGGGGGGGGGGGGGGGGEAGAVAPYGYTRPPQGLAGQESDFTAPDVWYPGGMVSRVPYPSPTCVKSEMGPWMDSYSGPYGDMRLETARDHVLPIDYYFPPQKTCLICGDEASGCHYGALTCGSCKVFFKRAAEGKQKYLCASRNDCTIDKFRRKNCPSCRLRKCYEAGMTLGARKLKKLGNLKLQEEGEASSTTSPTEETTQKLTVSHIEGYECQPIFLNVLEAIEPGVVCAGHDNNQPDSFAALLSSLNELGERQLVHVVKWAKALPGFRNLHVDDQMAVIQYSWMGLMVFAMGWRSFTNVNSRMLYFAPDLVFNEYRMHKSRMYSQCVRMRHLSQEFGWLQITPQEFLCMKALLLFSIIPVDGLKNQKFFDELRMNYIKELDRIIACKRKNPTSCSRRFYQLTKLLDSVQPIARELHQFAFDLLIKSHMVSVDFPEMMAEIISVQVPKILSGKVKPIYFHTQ

[2] = target: T2, AR AF-1 (Homo sapiens, UniProt P10275); assay: Click-chemistry fluorescein labelling, SDS-PAGE; format: binding; details: covalent; […] protein, […] probe, on ice […] min
T2 construct: recombinant AF-1 region, residues 142-485
T2 sequence (P10275 143-486): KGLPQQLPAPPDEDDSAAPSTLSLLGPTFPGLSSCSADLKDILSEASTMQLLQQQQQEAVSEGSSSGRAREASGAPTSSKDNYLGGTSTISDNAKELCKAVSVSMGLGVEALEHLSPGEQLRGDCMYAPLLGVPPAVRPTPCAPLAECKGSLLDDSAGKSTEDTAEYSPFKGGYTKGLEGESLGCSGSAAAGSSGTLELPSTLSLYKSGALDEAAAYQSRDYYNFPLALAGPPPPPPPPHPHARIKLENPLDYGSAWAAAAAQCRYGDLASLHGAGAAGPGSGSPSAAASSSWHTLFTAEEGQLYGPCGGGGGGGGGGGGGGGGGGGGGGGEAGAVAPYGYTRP

| SMILES | IC50 [1] [µM] | Click-chemistry fluorescein labelling, SDS-PAGE [2] |
| --- | --- | --- |
| CCCCCCCCCCCCC(=O)/C=C/CCCOC[C@H](O)CO [(R)-niphatenone B] | 6.3 ± 0.5 | – |
| CCCCCCCCCCCCC(=O)/C=C/CCCOC[C@@H](O)CO [(S)-niphatenone B] | 5.7 ± 0.6 | – |
| C#CCOCC(O)COCCC/C=C/C(=O)CCCCCCCCCCCC (stereo not drawn) [compound 44, niphatenone B 44] | – | resulted in covalent binding to both AR AF-1 and GR AF-1 peptide |
